Assays:
[1] = plasma pharmacokinetics after oral dosing in C57BL/6 mouse; format: in vivo; settings: 30 mg/kg, 30 mpk oral in 0.4% methylcellulose, n = 3, read-out: AUC (0-24 hr)
Protocol: (§1) SCH 546738 was tested at concentrations of 1-10 μM against a panel of 49 GPCR binding assays. Most of the assays were not affected by SCH 546738 (Table 2). […] In addition, SCH 546738 has a favourable pharmacokinetic profile in rodents. […] Therefore, SCH 546738 is suitable for in vivo preclinical studies.
(§2) Figure 4 Plasma concentration versus time profiles of SCH 546738 in Lewis rat and C57BL/6 mouse. SCH 546738 in 0.4% methylcellulose was administered orally at 10 mg/kg (mpk) in Lewis rats or 30 mpk in C57BL/6 mice. The plasma concentration of SCH 546738 in the blood was calculated as the mean of 3 animals (n = 3) at indicated time points post-dose. Their AUC from 0 to 24 hr is also calculated and indicated.

Lewis rats = test: rat experimental autoimmune encephalomyelitis; format: in vivo; settings: p.o. in 0.4% methylcellulose, varying doses; data not shown
Protocol: Male Lewis rats challenged by injection of 50 µl (30 mg) of a guinea pig spinal cord homogenate in CFA into one footpad. The animals were treated starting at day 0 and oral dosing continued throughout the 3-week disease course, with varying amounts of SCH 546738 in 0.4% methylcellulose (MC) p.o. Animals were scored for disease severity: 0, no clinical signs; 1, flaccid tail; 2, hind limb weakness; 3, complete hind limb paralysis; 4, complete hind limb paralysis, forelimb weakness or paralysis; 5, death.
For CIA and EAE models, unpaired t-tests were performed using GraphPad InStat version 5.0.1 for Windows 98, GraphPad Software, San Diego California USA (http://www.graphpad.com). Statistical significance was evaluated by comparing the vehicle-treated group with the experimental group using unpaired t-test. Differences were considered significant when p values were <0.05.
Experimental autoimmune encephalomyelitis (EAE) is an animal model for human MS and development of disease is dependent on T cell infiltration into the CNS. In the murine model of EAE, SCH 546738 was tested in combination with interferon-β (IFN-β), a current first-line therapeutic for the amelioration of relapsing-remitting MS. C57BL/6 mice were primed by intravenous injection of pertussis toxin on day 0 and day 2. […] Disease progression was monitored by a scoring system as described in Methods. […]

rat cardiac allograft = rat cardiac allograft transplant model (ACI to Lewis); format: in vivo; settings: for mean survival time of the graft (MST): vehicle MST = 6 days
Protocol: Cardiac graft of ACI (RT1a) rats was heterotopically transplanted into the abdominal cavity of Lewis (RT1^l) recipients employing a microvascular surgical technique as described. The grafts were monitored daily by abdominal palpation, and the complete cessation of heart contraction was defined as graft rejection. SCH 546738 or 0.4% methylcellulose (vehicle) was orally administered at the indicated dose (0.2 ml) twice a day, starting on the day before transplantation until the day of graft rejection. To test whether SCH 546738 enhanced the effect of conventional immunosuppressive reagent, the recipients were received treatment with subtherapeutic dose of CsA for one week combined with treatment with SCH 546738. Graft survival was analyzed using the log-rank test. The parametric data were analyzed by Student t test (2-tailed) using GraphPad InStat version 5.0.1 for Windows 98, GraphPad Software, San Diego California USA (http://www.graphpad.com). p < 0.05 was considered statistically significant.
SCH 546738 was administered orally twice daily at 1, 5 and 15 mpk. […] Graft survival was analyzed using the log-rank test.

[2] = plasma pharmacokinetics after oral dosing in Lewis rat; format: in vivo; settings: 10 mg/kg oral in 0.4% methylcellulose, n = 3, read-out: AUC (0-24 hr)
Protocol: as §1, §2

CXCR3 = target: T1, CXCR3 (Homo sapiens, UniProt P49682); test: human activated T cell chemotaxis induced by CXCL9, CXCL10, CXCL11; format: cell-based; design: endogenous in cells
T1 sequence (P49682 1-368): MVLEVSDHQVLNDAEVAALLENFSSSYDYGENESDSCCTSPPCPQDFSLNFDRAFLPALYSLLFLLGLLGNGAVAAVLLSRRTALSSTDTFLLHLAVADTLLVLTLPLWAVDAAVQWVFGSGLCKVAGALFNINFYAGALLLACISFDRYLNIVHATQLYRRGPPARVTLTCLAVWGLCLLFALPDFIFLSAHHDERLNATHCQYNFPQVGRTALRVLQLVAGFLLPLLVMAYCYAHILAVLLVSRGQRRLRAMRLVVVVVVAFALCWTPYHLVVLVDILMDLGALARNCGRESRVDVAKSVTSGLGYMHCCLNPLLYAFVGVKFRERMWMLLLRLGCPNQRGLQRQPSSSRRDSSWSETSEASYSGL
Protocol: The preparation of human activated T cells was performed as described previously [39]. Human peripheral blood lymphocytes were prepared by Ficoll-Hypaque centrifugation, depleted of monocytes, and stimulated for 2 days with 1 µg/ml PHA (Murex Diagnostics, Dartford, U.K.) and 100 U/ml IL-2 (Sigma, St. Louis, MO) in RPMI 1640 supplemented with 10% fetal bovine serum (FBS), 2 mM L-glutamine, 100 µg/ml streptomycin, 100 U/ml penecillin, 1% non-essential amino acids and 2 mM HEPES. Following stimulation, peripheral blood lymphocytes were cultured in above media containing 5% conditioned media (Sigma) for up to 15 days.
Human activated T cell chemotaxis assays were performed using 96-well ChemoTx® microplates (Neuro Probe, Inc., Gaithersburg, MD) with a 3 µm filter as per manufacturers' instructions. Activated T cells were washed with RPMI medium twice, and then resuspended in the medium containing 20% FBS. 1.25 × 10^5 cells/reaction were mixed with indicated concentrations of the compound and placed on the filter. The compound and chemokines were mixed and placed in the bottom well of the ChemoTx system. […] The number of migrated cells was measured using the Cell Titer Glo Luminescent Assay from Promega (Madison, WI) as per vendor's instructions. Chemotaxis is expressed as a chemotactic index, which is a ratio versus the one without chemokines (spontaneous migration). […]

CC[C@H]1CN(c2nc(N)c(C(N)=O)nc2Cl)CCN1C1CCN(Cc2ccc(Cl)cc2)CC1 [SCH 546738]
AUC(0-t) [1]: 12.6 µM·h
effect on disease severity (Lewis rats): reduced the severity of the disease in a dose-dependent manner
mean survival time of the graft (MST) (rat cardiac allograft; 1 mpk oral twice daily): 11 days
rate of permanent engraftment (rat cardiac allograft; 5 mpk SCH 546738 twice daily in combination with 2.5 mpk cyclosporine): 100%
mean survival time of the graft (MST) (rat cardiac allograft; 5 mpk oral twice daily): 14 days
mean survival time of the graft (MST) (rat cardiac allograft; 15 mpk oral twice daily): 14.9 days
AUC(0-t) [2]: 7.7 µM·h
inhibition at 0.01 µM (CXCR3; 10 nM compound, CXCL9, CXCL10, CXCL11, 20% FBS, read-out: inhibition of T cell chemotaxis induced by all three CXCR3 ligands): ~90%
IC90 (CXCR3; human activated T cells, read-out: IC90 of CXCR3-mediated chemotaxis): ~10 nM
